Experimental findings from patent US20150112057A1, “NOVEL CRYSTALLINE CEFOPERAZONE INTERMEDIATE” (DSM Sinochem Pharmaceuticals Netherlands B.V., priority 2011, published 2015) are described below.

Series [1] in a line: Chemical degradation of 7-TMCA to 5-mercapto-1-methyltetrazole during dissolution and enzymatic condensation. It counts as physicochemical. To be noted: during the dissolution step, titration with aqueous NaOH 5M. As for the experimental part: (§1) The reactions were followed by quantitative HPLC analysis. The retention factors of 7-TMCA, HPGM, HPG and 5-mercapto-1-methyltetrazole were calculated using standards; the retention factor of D-7-(4-hydroxyphenylacetamido)-3-(1-methyl-1H-tetrazol-5-yl)thiomethylcephem-4-carboxylic acid was deducted based on mass balance in the first experiments and subsequently calculated using standard; the retention factor of cefatrizine was deducted on mass balance.
7-Amino-3-(1-methyl-1H-tetrazol-5-ylthiomethyl)-3-cephem-4-carboxylic acid (7-TMCA; 5 g) was added to distilled water (38 g) and cooled to 3° C. The mixture was stirred at 400 rpm and the pH was brought to 9.0 with aqueous NaOH (5M) whereafter the remainder of the reaction was carried out at pH 8.8. After 60-80 min, the suspension was filtered. The filtrate, containing 4.1 g of 7-TMCA, was place back in the reactor and immobilized penicillin G acylase mutant 1 (3.5 g, see Materials and Methods) was added and to the resulting mixture a solution of D-4-hydroxyphenylglycine methylester (HPGM) was dropped at speed of 7 mL/h by a syringe pump (dosing time 2 h). This solution was prepared by dissolving HPGM (4.0 g, 1.7 equiv.) in water (6.4 g) and H2SO4 25% (4.25 g in water). The enzymatic reaction was followed by analytical HPLC (see Materials and Methods) and stopped at the end of HPGM addition, by enzyme filtration. […]

Series [2] in a line: Chemical hydrolysis of HPGM to HPG (chemical blank, no enzyme). It counts as physicochemical. The following applies: water pH 8.7, 2° C. How it is done:
as §1
During the enzymatic condensation of 7-TMCA and HPGM the latter compound was hydrolyzed to HPG. […] Two reactions were started in parallel at 2° C. […] In one of the reactors immobilized penicillin G acylase mutant 1 (5 g) was added and the two reactions were monitored by analytical HPLC.

Series [3] has as its target T1, immobilized penicillin G acylase mutant 1 (Escherichia coli, UniProt P06875, F313A/F749L/S29L/V218E/V437L).
T1 construct: mutations V11A, A:S3L, A:V192E, B:F24A, B:V148L and B:F460L; made in house
The experiment in a line: Enzymatic hydrolysis of HPGM to HPG. To be noted: water pH 8.7, 2° C., immobilized penicillin G acylase mutant 1 (5 g). In kind it is biochemical.
From the text: The production, isolation and purification of wild type and mutant penicillin G acylases may be carried out as described in WO 1996/005318 and WO 2003/055998. Alternatively, genes encoding mutant penicillin G acylases may be obtained by gene synthesis. Production of the mutant penicillin G acylase was achieved by cloning the genes encoding mutant penicillin G acylases into an appropriate expression vector, transforming a suitable host such as Escherichia coli with said vector and culturing the transformed host under conditions suitable for the production of the mutant penicillin G acylases and recovery and purification of the mutants was carried out as described in WO 2010/072765. […]
as §1
During the enzymatic condensation of 7-TMCA and HPGM the latter compound was hydrolyzed to HPG. […] In one of the reactors immobilized penicillin G acylase mutant 1 (5 g) was added and the two reactions were monitored by analytical HPLC.

With `Cn1nnnc1SCC1=C(C(=O)O)N2C(=O)[C@@H](N)[C@H]2SC1` [Example 7-TMCA, 7-amino-3-(1-methyl-1H-tetrazol-5-ylthiomethyl)-3-cephem-4-carboxylic acid], the “amount of 5-mercapto-1-methyltetrazole (degradation product of 7-TMCA)” value in series [1] is on record as “not detectable”.

Regarding `COC(=O)[C@H](N)c1ccc(O)cc1` [HPGM, D-4-hydroxyphenylglycine methylester], the “HPGM hydrolyzed in the chemical blank” value in series [2] (20 h) turned out to be 9%. Further, the “formation of HPG from HPGM in the chemical blank” value in series [2] (within 2 h) was “no HPG was recorded”. Also, the “time to complete conversion of HPGM to HPG by the enzyme” value in series [3] is given as at most 5 min.
